Results on one substance are retold here after patent US10111900B2, “β-glucan methods and compositions that affect the tumor microenvironment” (Biothera, Inc., priority 2014, dated 2018).

The subject of one test is CD4 and CD8 T cells. Description: T cell proliferation and activation of PBMCs in plasma from β-glucan-treated whole blood. Type of test: cell-based, human. How it is done: To obtain plasma, whole blood was treated for 6 hours with 25 μg/mL β-glucan or vehicle, spun down and the plasma removed. 50,000 autologous CFSE-labeled PBMCs were cultured in the treated plasma for 3 days in the presence of 50,000 T cell activating CD3/28 beads (DYNABEADS Human T-Activator CD3/CD28 for T Cell Expansion and Activation). At the end of the culture, PBMCs were stained with CD4 and CD8 and T cell proliferation was measured by CFSE dilution.
Next, to show the effect of soluble β-glucan on CD4 and CD8 cell activation, the T cell proliferation assay described above was again carried out. At day 3, however, the cells were stained for markers of activation including Granzyme B production and CD25 upregulation.

Test [1] has as its system M2 macrophages cultured in TCM. Description: Flow cytometry of markers on M2 macrophages cultured in tumor-conditioned medium (TCM). The test is classed as cell-based, human. How it is done:
Phenotypic and functional evaluation of β-glucan-treated M2a and β-glucan-treated M2 macrophages in the presence of immunosuppressive cytokines was carried out. M2 or M2a macrophages were prepared as described above. On day 3, tumor-conditioned medium (TCM) was added M2 macrophage cultures to account for 70% of the volume of the culture and then evaluated for CD163 expression and functional activity on day 6. […] M2a macrophages were cultured in IL-4 as described above.
The β-glucan-treated M2a macrophages cultured in IL-4 and M2 macrophages cultured in TCM were first evaluated for CD163 and CD86 expression. CD163 and CD86 were evaluated by flow cytometry and median MFI was calculated for isotype control staining and surface antigen staining and the results are shown in Table 5.
Monocytes or M2 macrophages were prepared as described above. On day 3, TCM was added to account for 70% of the volume of the culture and then evaluated for PD-L1 expression with TCM and then again when co-cultured with CD4 T cells.
(In general: In flow cytometry, cells or beads pass a laser one at a time.)

A further test has as its system Monocytes. Description: Binding of β-glucan to monocytes in whole blood (serum cross-over). Type of test: cell-based, human. The settings on record: low binder's whole blood with high binder's serum (higher ABA). Here is the method:
(§1) To test this, M2 macrophages were prepared as described above with a few modifications. The whole blood of a low binder was spun down to remove the plasma and then the cells were reconstituted with serum obtained from a high binder. The reconstituted blood was treated with vehicle or β-glucan (25 μg/mL) for 2 hours at 37° C. The monocytes were evaluated for binding by using anti-β-glucan specific monoclonal antibody and subsequent flow cytometry.

The subject of the next test is H1299 NSCLC tumors. The test can be described thus: H1299 NSCLC tumors in mice, effect on TME. Type of test: in vivo. How it is done:
Mice bearing H1299 NSCLC tumors were administered bevacizumab (an anti-angiogenic antibody) (5 mg/kg twice weekly IP for four weeks) alone or in combination with IMPRIME PGG (1.2 mg/mouse twice weekly IV for four weeks) as described above for the other mouse studies. […] Increased iNOS and decreased Arginase 1 are markers indicating an M1, immunostimulatory environment.
In addition, at day 20, post tumor injection, spleens were harvested and single cell suspensions were stained with mouse antibodies and analyzed by FACS. GMFI or frequency was calculated in Flowjo after gating on CD11b+F4/80+CD68+ cells (FIG. 17D-FIG. 17F). FIG. 17D and FIG. 17E show an increase in iNOS and a decrease of Arginase-1, respectively. Spleen cells were also stimulated overnight with 100 ng/ml lipopolysaccharide (LPS) and analyzed for TNF-α production. […] As shown, Arginase-1 decreased and iNOS and CD86 increased, which indicates differentiation of splenic MDSC to M1/N1 macrophage/neutrophils with IMPRIME PGG treatment.
For FIG. 17K-FIG. 17M, tumors were harvested at day 20 and digested with type I collagenase for 1 hour at 37° C. Single cell suspensions were stained with mouse antibodies and analyzed by FACS. GMFI or frequency was calculated in Flowjo after gating on CD11b+ cells. As shown, PD-L1 and iNOS increased while Arginase-1 decreased indicating the shift in tumor-infiltrating myeloid cells to a M1-type phenotype.
Lastly, single cell suspensions of the tumor cells were cultured overnight and supernatants were measured for TGF-β by ELISA.

A further test relates to CD4 T cells. Description: MCM-CD4 T cell proliferation and surface marker study. The test is classed as cell-based, human. How it is done:
For MCM-CD4 T cell proliferation study, CD3 & CD28-stimulated, CFSE-labeled CD4 T cells were cultured with 50% MCM. T cell proliferation was measured on day 11 as described above. Culture supernatants of the MCM-CD4 T cell co-culture were collected for subsequent cytokine analysis. MCM-CD4 T cell surface marker evaluation was performed as described above.
To determine whether soluble factors secreted from β-glucan-treated M2 macrophages are required, measurements were carried out of CD4 T cell proliferation co-cultured with β-glucan-treated M2 macrophages MCM (50% of volume) and surface activation marker modulation on T cells incubated with the MCM were observed. FIG. 9 is representative of 2 different experiments. […] In addition, the CD4 T cells cultured in vehicle- and β-glucan-treated M2 macrophage MCM were evaluated for modulation of co-stimulatory or co-inhibitory molecules (CD80, CD28, CTLA-4, 4-1BB and PD-1).
as §1

[2] abbreviates: spleen, day 20, CD11b+F4/80+CD68+ cells.

As to “β(1,6)-[poly-(1,3)-D-glucopyranosyl]-poly-β(1,3)-D-glucopyranose [β-glucan]”, the “CD4 and CD8 proliferation” value in the test on CD4 and CD8 T cells (plasma from whole blood treated 6 hours with 25 μg/mL β-glucan, vs vehicle, CD3/28 beads, 3 days) is recorded as “significant enhancement”. Besides, the “CD4 and CD8 cell activation (Granzyme B production, CD25 upregulation)” value in the test on CD4 and CD8 T cells (β-glucan-treated plasma, day 3) was “enhances”. Besides, in test [1] (M2 macrophages cultured in the TCM), the “surface expression of PD-L1” value was “higher surface expression”. The HLA-DR expression entry in test [1] (M2 macrophages in TCM (data not shown)) is on record as “higher HLA-DR expression”. The “expression of PD-L1” value in test [1] (M2 macrophages in TCM co-cultured with CD4 T cells) is “increased expression”. Also, in test [1] (β-glucan-treated monocytes cultured in TCM), the CD163 expression entry is listed as “marked down-regulation”. Also, the “binding of β-glucan to monocytes” value in the test with Monocytes is reported as “significantly higher binding”. The TNF-α production entry in the test with H1299 NSCLC tumors (spleen cells stimulated overnight with 100 ng/ml LPS) was “increase”. Also, the Arginase-1 entry in the test on H1299 NSCLC tumors (spleen, CD11b+Gr1+ cells) is reported as “decreased”; in the test with H1299 NSCLC tumors (setting [2]), “decrease”. In the test on H1299 NSCLC tumors (spleen, CD11b+Gr1+ cells), the CD86 result is “increased”. Moreover, the iNOS result is reported as “increased” in the test on H1299 NSCLC tumors (spleen, CD11b+Gr1+ cells) and “increase” with H1299 NSCLC tumors (setting [2]). Also, the “expression of co-stimulatory marker CD86” value in the test with H1299 NSCLC tumors (tumor granulocytic MDSC (CD11b+Lyg6+)) is given as “enhanced expression”. Further, the “T cell markers (CD80, CD28, CTLA-4, 4-1BB and PD-1)” value in the test with CD4 T cells (CD4 T cells cultured in M2 macrophage MCM (data not shown)) was “no change”. The “CD4 T cell proliferation” value is “significantly higher ability to enhance” in the test with CD4 T cells (MCM of M2 macrophages of a low binder crossed-over with high binder's serum, vs vehicle) and “significantly higher ability to enhance” in the test with CD4 T cells (β-glucan-treated M2 macrophage MCM (50% of volume) vs vehicle MCM).
